Assay results from article PMC9854868, “Structure–Activity Relationship Studies of Substitutions of Cationic Amino Acid Residues on Antimicrobial Peptides” (Antibiotics, 2022).
≈ marks a conversion by molar mass, not a printed value. Like-named read-outs stand apart in the source and are kept apart here. Square brackets hold non-standard residues; d marks the D form. Ends that are not written are not given here. Peptide text beside a SMILES is read from it. Orn = NCCC[C@H](N)C(=O)O; Dab = NCC[C@H](N)C(=O)O; Aib = CC(C)(N)C(=O)O

Columns and labels:
E. coli DH5α = format: cell-based, Escherichia coli
Protocol: (§1) The selected bacterial strains were obtained from the Biological Resource Center, NITE (NBRC; Tokyo, Japan). Escherichia coli DH5α cells were purchased from BioDynamics Laboratory, Inc. (Tokyo, Japan). The antimicrobial activities of the peptides against […] and three Gram-negative bacteria, S. aureus NBRC 13276, E. coli DH5α, P. aeruginosa NBRC 13275, and MDRP were measured using the standard broth microdilution method, as previously described. Briefly, the bacteria were inoculated and grown overnight at 37 °C on the media for other organisms i (agar medium) and then collected with the media for other organisms ii (liquid medium), according to the Japanese Pharmacopoeia 17th Edition. Each peptide was 2-fold serially diluted with an initial concentration of 4000 μM–1.56 μM in PBS for use. Next, 10 μL of the peptide solution per well was added to each well of a sterile 96-well plate. Subsequently, 90 μL per well of inoculation with 10^4 CFUs (colony forming units) per mL was added to each well, and the plate was incubated for 18 h at 35 °C.

[1] = Digestion assay with proteinase K; format: in vitro ADME; conditions: proteinase K (isolated protease); proteinase K 0.002% (v/v), peptide 1 mM, 37 °C, 24 h, read-out HPLC, two independent experiments; read-out: remaining peptide after treatment with proteinase K
Protocol: (§2) The digestion assay was performed using Proteinase K of the digestive enzyme. Peptides (1 mM) were treated with 0.002% (v/v) Proteinase K and peptides were incubated at 37 °C for 2–24 h. A solution (0.1% TFA/H2O/MeCN) was added to quench the enzymatic reaction. The peptides were evaluated using analytical HPLC and a Discovery® BIO Wide Pore C18 column (25 cm × 4.6 mm, solvent A: 0.1% TFA/water, solvent B: 0.1% TFA/MeCN, flow rate: […], gradient: 10–60% gradient of solvent B over 30 min). Reproducibility was confirmed by the two independent experiments.

MDRP = format: cell-based, multidrug-resistant Pseudomonas aeruginosa; conditions: 18 h
Protocol: as §1

S. aureus NBRC 13276 = format: cell-based, Staphylococcus aureus; conditions: NBRC 13276, 18 h
Protocol: as §1

human red blood cells = conditions: human RBCs in 172 mM Tris-HCl pH 7.6, 30 min at 37 °C, 100 to 0.39 μM, absorbance 535 nm; DMSO = 0%, M-Lycotoxin = 100%
Protocol: Human red blood cells (RBCs) were kindly supplied by the Japanese Red Cross Society (Tokyo, Japan) and were collected from volunteers under informed consent. The hemolysis test of peptides was performed using a previously reported method. In short, the RBCs were washed three times with 172 mM Tris-HCl buffer (pH = 7.6, wash buffer: WB), and 1.0 mL of sedimented erythrocytes was then transferred to 9.0 mL of WB. Then, 0.5 mL of this suspension was diluted in WB, and 50 µL of RBC suspension was incubated with 50 µL of each peptide for 30 min at 37 °C (final peptide conc from 100 to 0.39 μM). The suspensions were then centrifuged for 5 min at 400 rpm. The absorbance of the supernatant was measured at a wavelength of 535 nm. M-Lycotoxin [26] was used as a positive control, and the absorbances of the sample by treatment of DMSO and M-Lycotoxin were defined as 0 and 100%.

P. aeruginosa NBRC 13275 = format: cell-based, Pseudomonas aeruginosa; conditions: NBRC 13275, 18 h
Protocol: as §1

proteinase K = proteinase K (Parengyodontium album, UniProt P06873); assay: Digestion assay with proteinase K; format: in vitro ADME; conditions: proteinase K 0.002% (v/v), peptide 1 mM, 37 °C, 2–24 h, HPLC; replacing Lys with Orn
Protocol: as §2

proteinase K, sequence (P06873 106-384): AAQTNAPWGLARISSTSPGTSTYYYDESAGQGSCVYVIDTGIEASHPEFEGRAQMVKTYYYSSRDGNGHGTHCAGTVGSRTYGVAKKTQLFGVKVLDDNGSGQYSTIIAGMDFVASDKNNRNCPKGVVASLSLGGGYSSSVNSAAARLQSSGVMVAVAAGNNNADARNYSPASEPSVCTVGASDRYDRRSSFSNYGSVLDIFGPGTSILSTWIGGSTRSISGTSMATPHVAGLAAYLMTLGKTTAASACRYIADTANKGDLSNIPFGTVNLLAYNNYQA

| Compound | MIC, Gram (–), E.Coli (E. coli DH5α; DH5α, 18 h) [µM] | remaining at 24 h, 1 mM [1] [%] | MIC, Gram (–), MDRP (MDRP) [µM] | MIC, Gram (+), S.a. (S. aureus NBRC 13276) [µM] | Hemolysis (concentration that showed hemolytic activity greater than 50%) (human red blood cells) [µM] | MIC, Gram (–), P.a. (P. aeruginosa NBRC 13275) [µM] | prolongation of half life time (t1/2) against proteinase K versus peptide 1 (proteinase K) | MIC, Gram (–), E.Coli (E. coli DH5α; E. coli DH5α, broth microdilution, 10^4 CFU per mL, 18 h at 35 °C, final concentration 0.39 to 100 μM, lowest concentration that completely inhibited growth) [µM] |
| --- | --- | --- | --- | --- | --- | --- | --- | --- |
| CC[C@H](C)[C@H](NC(=O)CN)C(=O)N[C@@H](CCCCN)C(=O)N[C@@H](CCCCN)C(=O)N[C@@H](Cc1ccccc1)C(=O)N[C@@H](CC(C)C)C(=O)N[C@@H](CCCCN)C(=O)N[C@@H](CO)C(=O)NC(C)(C)C(=O)N[C@@H](CCCCN)C(=O)N[C@@H](CCCCN)C(=O)N[C@@H](Cc1ccccc1)C(=O)N[C@H](C(=O)N[C@@H](CCCCN)C(=O)NC(C)(C)C(=O)N[C@@H](Cc1ccccc1)C(=O)N[C@@H](CCCCN)C(N)=O)C(C)C [Peptide 1] (H-GIKKFLKS[Aib]KKFVK[Aib]FK-NH2) | 3.13 (≈ 6.25 µg/mL) | ~20 | 3.13 (≈ 6.25 µg/mL) | 12.5 (≈ 24.9 µg/mL) | 100 | 3.13 (≈ 6.25 µg/mL) |  |  |
| CC[C@H](C)[C@H](NC(=O)CN)C(=O)N[C@@H](CCCN)C(=O)N[C@@H](CCCN)C(=O)N[C@@H](Cc1ccccc1)C(=O)N[C@@H](CC(C)C)C(=O)N[C@@H](CCCN)C(=O)N[C@@H](CO)C(=O)NC(C)(C)C(=O)N[C@@H](CCCN)C(=O)N[C@@H](CCCN)C(=O)N[C@@H](Cc1ccccc1)C(=O)N[C@H](C(=O)N[C@@H](CCCN)C(=O)NC(C)(C)C(=O)N[C@@H](Cc1ccccc1)C(=O)N[C@@H](CCCN)C(N)=O)C(C)C [Peptide 2] (H-GI[Orn][Orn]FL[Orn]S[Aib][Orn][Orn]FV[Orn][Aib]F[Orn]-NH2) | 3.13 (≈ 5.94 µg/mL) | 41 | 3.13 (≈ 5.94 µg/mL) | 12.5 (≈ 23.7 µg/mL) | 50 | 6.25 (≈ 11.9 µg/mL) | up to approximately two times |  |
| CC[C@H](C)[C@H](NC(=O)CN)C(=O)N[C@@H](CCN)C(=O)N[C@@H](CCN)C(=O)N[C@@H](Cc1ccccc1)C(=O)N[C@@H](CC(C)C)C(=O)N[C@@H](CCN)C(=O)N[C@@H](CO)C(=O)NC(C)(C)C(=O)N[C@@H](CCN)C(=O)N[C@@H](CCN)C(=O)N[C@@H](Cc1ccccc1)C(=O)N[C@H](C(=O)N[C@@H](CCN)C(=O)NC(C)(C)C(=O)N[C@@H](Cc1ccccc1)C(=O)N[C@@H](CCN)C(N)=O)C(C)C [Peptide 3] (H-GI[Dab][Dab]FL[Dab]S[Aib][Dab][Dab]FV[Dab][Aib]F[Dab]-NH2) | 3.13 (≈ 5.63 µg/mL) |  | 6.25 (≈ 11.2 µg/mL) | 12.5 (≈ 22.5 µg/mL) | 25 | 6.25 (≈ 11.2 µg/mL) |  |  |
| CC[C@H](C)[C@H](NC(=O)CN)C(=O)N[C@@H](CCCNC(=N)N)C(=O)N[C@@H](CCCNC(=N)N)C(=O)N[C@@H](Cc1ccccc1)C(=O)N[C@@H](CC(C)C)C(=O)N[C@@H](CCCNC(=N)N)C(=O)N[C@@H](CO)C(=O)NC(C)(C)C(=O)N[C@@H](CCCNC(=N)N)C(=O)N[C@@H](CCCNC(=N)N)C(=O)N[C@@H](Cc1ccccc1)C(=O)N[C@H](C(=O)N[C@@H](CCCNC(=N)N)C(=O)NC(C)(C)C(=O)N[C@@H](Cc1ccccc1)C(=O)N[C@@H](CCCNC(=N)N)C(N)=O)C(C)C [Peptide 4] (H-GIRRFLRS[Aib]RRFVR[Aib]FR-NH2) | 3.13 (≈ 6.86 µg/mL) |  | 12.5 (≈ 27.4 µg/mL) | 3.13 (≈ 6.86 µg/mL) | 6.25 | 12.5 (≈ 27.4 µg/mL) |  |  |
| CC[C@H](C)[C@H](NC(=O)CN)C(=O)N[C@@H](Cc1c[nH]cn1)C(=O)N[C@@H](Cc1c[nH]cn1)C(=O)N[C@@H](Cc1ccccc1)C(=O)N[C@@H](CC(C)C)C(=O)N[C@@H](Cc1c[nH]cn1)C(=O)N[C@@H](CO)C(=O)NC(C)(C)C(=O)N[C@@H](Cc1c[nH]cn1)C(=O)N[C@@H](Cc1c[nH]cn1)C(=O)N[C@@H](Cc1ccccc1)C(=O)N[C@H](C(=O)N[C@@H](Cc1c[nH]cn1)C(=O)NC(C)(C)C(=O)N[C@@H](Cc1ccccc1)C(=O)N[C@@H](Cc1c[nH]cn1)C(N)=O)C(C)C [Peptide 5] (H-GIHHFLHS[Aib]HHFVH[Aib]FH-NH2) | >50 |  | >50 | >50 | >100 | >50 |  |  |
| GIGKFLHSAKKFGKAFVGEIMNS-NH2 [Mag2, magainin 2, reference compound] |  |  | 12.5 | 100 | >100 | 12.5 |  | 3.13 |
